Source: patent publication US20240150290A1, “HETEROCYCLIC P2Y14 RECEPTOR ANTAGONISTS” (priority 2021, published 2024)
Read-outs that look alike come from different tables or passages of the source. Marks after values point to notes of the source that are not given here.

Experiments:
Plasma stability, rat = details: Table 7
CYP2C19 = CYP2C19 (Homo sapiens, UniProt P33261); experiment: CYP2C19 inhibition; format: in vitro ADME; details: Table 7
[1] = Plasma protein binding, rat; format: in vitro ADME
mP2Y14R [2] = target: T1, mP2Y14R (Mus musculus, UniProt Q9ESG6); experiment: cell-based; details: read-out: mP2Y14R, IC50; Table 6; whole mP2Y14R-HEK cells, 200 nM of 3, mean ± SEM, n = 3-6
T1 sequence (Q9ESG6 1-338): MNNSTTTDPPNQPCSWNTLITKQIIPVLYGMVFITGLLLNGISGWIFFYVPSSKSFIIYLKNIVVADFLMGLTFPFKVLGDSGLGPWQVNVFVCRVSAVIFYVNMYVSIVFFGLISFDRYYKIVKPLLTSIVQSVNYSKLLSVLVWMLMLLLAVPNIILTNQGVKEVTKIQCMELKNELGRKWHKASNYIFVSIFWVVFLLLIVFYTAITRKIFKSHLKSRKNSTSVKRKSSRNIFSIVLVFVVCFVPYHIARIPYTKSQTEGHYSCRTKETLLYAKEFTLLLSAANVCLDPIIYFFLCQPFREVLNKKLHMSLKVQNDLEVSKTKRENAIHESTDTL
Excerpt: Desirably, receptor affinity is maintained across species, facilitating performance in in vivo preclinical testing in small animals, with the mouse being the most commonly used species in initial evaluation.

[3] = In vivo half-life by administration mode (Table 7)
[4] = Microsomal stability, rat; format: in vitro ADME; details: Table 7
CYP3A4 = CYP3A4 (Homo sapiens, UniProt P08684); experiment: CYP3A4 inhibition; format: in vitro ADME; details: Table 7
CYP3A4, sequence (P08684 whole entry): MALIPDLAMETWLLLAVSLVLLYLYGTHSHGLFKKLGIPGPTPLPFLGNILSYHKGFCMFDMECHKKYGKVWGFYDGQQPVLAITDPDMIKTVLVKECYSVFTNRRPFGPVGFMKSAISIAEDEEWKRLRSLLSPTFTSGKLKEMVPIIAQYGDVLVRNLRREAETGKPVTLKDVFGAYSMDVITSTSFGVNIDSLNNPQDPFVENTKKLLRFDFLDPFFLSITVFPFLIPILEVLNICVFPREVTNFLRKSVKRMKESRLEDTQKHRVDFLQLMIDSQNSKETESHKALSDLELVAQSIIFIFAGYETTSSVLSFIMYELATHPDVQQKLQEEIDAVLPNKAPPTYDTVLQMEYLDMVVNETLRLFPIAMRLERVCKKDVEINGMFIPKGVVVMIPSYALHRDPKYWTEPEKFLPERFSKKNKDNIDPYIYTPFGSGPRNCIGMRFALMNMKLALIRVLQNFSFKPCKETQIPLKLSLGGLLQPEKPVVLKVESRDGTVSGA

[5] = Stability in simulated intestinal fluid; details: Table 7
CYP2D6 = CYP2D6 (Homo sapiens, UniProt P10635); experiment: CYP2D6 inhibition; format: in vitro ADME; details: Table 7
CYP2D6, sequence (P10635 whole entry): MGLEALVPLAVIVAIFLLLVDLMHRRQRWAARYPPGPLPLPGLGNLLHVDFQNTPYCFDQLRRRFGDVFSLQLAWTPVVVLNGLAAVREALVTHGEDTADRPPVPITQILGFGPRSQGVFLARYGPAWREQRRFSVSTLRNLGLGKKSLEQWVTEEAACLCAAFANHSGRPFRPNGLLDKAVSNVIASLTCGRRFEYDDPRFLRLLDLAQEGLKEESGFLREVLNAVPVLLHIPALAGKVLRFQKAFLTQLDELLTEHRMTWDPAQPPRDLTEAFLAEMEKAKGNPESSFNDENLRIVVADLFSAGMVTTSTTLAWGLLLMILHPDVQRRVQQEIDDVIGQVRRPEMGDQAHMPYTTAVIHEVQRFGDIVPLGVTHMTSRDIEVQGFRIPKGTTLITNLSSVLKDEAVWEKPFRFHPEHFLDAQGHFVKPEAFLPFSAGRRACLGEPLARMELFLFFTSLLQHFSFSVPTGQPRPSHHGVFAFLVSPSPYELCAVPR

[6] = Microsomal stability, mouse; format: in vitro ADME; details: Table 7
hERG = hERG (Homo sapiens, UniProt Q12809); experiment: hERG inhibition, fluorescent method; format: binding; details: Table 7
hERG, sequence (Q12809 whole entry): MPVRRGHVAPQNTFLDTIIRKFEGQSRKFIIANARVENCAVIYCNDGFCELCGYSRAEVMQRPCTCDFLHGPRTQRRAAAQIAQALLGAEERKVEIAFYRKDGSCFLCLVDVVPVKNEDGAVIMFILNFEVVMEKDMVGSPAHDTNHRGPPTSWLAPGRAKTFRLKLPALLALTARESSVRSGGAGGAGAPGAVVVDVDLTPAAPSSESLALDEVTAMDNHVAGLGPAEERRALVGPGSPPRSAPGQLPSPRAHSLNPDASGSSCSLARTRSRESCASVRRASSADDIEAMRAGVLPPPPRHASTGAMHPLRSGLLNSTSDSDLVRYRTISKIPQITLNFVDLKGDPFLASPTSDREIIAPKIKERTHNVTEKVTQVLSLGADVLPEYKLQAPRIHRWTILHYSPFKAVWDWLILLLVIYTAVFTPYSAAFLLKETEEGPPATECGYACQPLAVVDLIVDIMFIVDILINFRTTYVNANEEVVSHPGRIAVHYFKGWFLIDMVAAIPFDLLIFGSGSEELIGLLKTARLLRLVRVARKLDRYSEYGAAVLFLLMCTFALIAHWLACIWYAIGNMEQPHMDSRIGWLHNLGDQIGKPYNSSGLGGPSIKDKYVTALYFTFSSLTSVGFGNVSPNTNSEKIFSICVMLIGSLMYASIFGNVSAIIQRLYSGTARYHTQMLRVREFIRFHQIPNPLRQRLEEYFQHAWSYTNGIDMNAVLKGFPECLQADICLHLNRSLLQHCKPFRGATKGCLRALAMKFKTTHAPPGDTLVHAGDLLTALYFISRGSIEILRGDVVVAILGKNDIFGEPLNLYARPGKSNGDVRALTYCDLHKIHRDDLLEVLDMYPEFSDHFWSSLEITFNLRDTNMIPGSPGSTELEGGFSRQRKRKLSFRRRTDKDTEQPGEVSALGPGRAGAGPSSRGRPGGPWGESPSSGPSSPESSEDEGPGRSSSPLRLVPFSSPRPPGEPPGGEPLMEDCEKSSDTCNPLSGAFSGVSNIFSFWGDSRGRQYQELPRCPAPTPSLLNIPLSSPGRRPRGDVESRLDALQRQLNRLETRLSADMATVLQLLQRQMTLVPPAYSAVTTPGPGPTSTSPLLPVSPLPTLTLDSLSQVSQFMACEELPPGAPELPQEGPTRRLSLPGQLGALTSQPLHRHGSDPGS

[7] = Stability in simulated gastric fluid; details: Table 7
CYP1A2 = target: T2, CYP1A2 (Homo sapiens, UniProt P05177); experiment: CYP1A2 inhibition; format: in vitro ADME; details: Table 7
T2 sequence (P05177 1-516): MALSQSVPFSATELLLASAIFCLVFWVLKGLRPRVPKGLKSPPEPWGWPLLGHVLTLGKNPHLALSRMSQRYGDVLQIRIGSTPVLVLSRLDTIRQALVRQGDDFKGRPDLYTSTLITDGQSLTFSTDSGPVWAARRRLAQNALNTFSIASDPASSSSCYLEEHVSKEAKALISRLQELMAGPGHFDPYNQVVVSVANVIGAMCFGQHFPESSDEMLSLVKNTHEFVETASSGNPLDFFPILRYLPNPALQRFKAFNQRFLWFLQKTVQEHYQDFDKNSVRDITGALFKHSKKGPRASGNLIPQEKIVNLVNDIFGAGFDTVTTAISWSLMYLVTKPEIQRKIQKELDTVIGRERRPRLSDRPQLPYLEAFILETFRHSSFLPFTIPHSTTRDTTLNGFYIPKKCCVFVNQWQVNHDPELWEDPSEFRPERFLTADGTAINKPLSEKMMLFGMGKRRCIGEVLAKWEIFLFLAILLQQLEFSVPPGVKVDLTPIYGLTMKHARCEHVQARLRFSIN

[8] = Plasma protein binding, mouse; format: in vitro ADME
[9] = Microsomal stability, human
hP2Y14R [10] = target: T3, hP2Y14R (Homo sapiens, UniProt Q15391); experiment: Inhibition of fluorescent antagonist binding in whole hP2Y14R-expressing CHO cells (flow cytometry)
T3 construct: expressed in transfected cells; host or cells: CHO cells
T3 sequence (Q15391 1-338): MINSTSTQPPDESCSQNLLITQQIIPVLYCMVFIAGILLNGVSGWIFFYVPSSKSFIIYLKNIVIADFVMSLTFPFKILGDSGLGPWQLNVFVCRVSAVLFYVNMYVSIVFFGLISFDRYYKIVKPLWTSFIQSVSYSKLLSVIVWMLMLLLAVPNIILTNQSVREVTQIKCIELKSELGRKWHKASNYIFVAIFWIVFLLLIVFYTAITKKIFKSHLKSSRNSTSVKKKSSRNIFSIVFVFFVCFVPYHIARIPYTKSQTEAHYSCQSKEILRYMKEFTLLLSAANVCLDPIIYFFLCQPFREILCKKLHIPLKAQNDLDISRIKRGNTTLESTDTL

CYP2C9 = CYP2C9 (Homo sapiens, UniProt P11712); experiment: CYP2C9 inhibition
CYP2C9, sequence (P11712 whole entry): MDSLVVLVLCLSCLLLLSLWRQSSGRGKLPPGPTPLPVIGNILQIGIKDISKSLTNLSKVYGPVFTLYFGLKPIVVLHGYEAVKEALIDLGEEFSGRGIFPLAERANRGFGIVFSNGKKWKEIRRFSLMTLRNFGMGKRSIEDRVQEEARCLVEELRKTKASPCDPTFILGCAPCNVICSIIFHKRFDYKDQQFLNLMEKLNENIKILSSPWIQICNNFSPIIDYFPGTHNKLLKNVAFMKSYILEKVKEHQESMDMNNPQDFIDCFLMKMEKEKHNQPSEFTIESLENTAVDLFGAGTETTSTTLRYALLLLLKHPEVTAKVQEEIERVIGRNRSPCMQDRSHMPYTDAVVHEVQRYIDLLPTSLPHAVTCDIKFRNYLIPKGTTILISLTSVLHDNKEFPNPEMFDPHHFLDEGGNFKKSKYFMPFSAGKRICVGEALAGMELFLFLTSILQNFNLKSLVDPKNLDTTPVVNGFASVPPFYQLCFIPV

Plasma stability, mouse = details: Table 7
[11] = Plasma protein binding, human; format: in vitro ADME
PLE = experiment: Esterase cleavage of prodrugs in the presence of PLE; format: in vitro ADME; details: pH 7.3, PLE, 72 h, 37° C.
[12] = test system: allergen-induced airway inflammation; experiment: Ovalbumin/Aspergillus mouse asthma model (BALF leukocytes); details: 20 μmol/kg, i.p. prior to allergen challenge, two days post-challenge
[13] = HPLC-based lipophilicity (Log D7.4)
[14] = Aqueous solubility, pION method
hERG ion channel = hERG ion channel (Homo sapiens, UniProt Q12809); experiment: hERG ion channel block, patch clamp assay
hERG ion channel, sequence (Q12809 whole entry): as the sequence (Q12809 whole entry) above

[15] = test system: CCI-induced mechano-allodynia; experiment: Chronic constriction injury (CCI) mouse model of neuropathic pain; details: 10 μmol/kg, i.p.
[16] = Table 7, Jung et al. 2020, cited from earlier work
hP2Y14R [17] = target: T3, hP2Y14R; details: Table 2; data from Jung et al. and Mufti et al.; cited from earlier work
[18] = mouse; Table 7; Jung et al. 2020; cited from earlier work
mP2Y14R [19] = target: T1, mP2Y14R; set-up: expressed in transfected cells; details: Table 2; data from Jung et al. and Mufti et al.; cited from earlier work
[20] = human; Table 7; Jung et al. 2020; cited from earlier work
[21] = human; Table 7; Jung et al. 2020; cited from earlier work; remark: listed apart in the source
[22] = mouse; Table 7; Jung et al. 2020; cited from earlier work; remark: listed apart in the source
[23] = first value of the cell (mode not given; by the column of 4: i.p.)
[24] = second value of the cell (mode not given; by the column of 4: i.v., 0.5 mg/kg)
[25] = Table 6, fluorescent hP2Y14R antagonist (3), read-out: hP2Y14R, IC50

CYP2C19, sequence (P33261 whole entry): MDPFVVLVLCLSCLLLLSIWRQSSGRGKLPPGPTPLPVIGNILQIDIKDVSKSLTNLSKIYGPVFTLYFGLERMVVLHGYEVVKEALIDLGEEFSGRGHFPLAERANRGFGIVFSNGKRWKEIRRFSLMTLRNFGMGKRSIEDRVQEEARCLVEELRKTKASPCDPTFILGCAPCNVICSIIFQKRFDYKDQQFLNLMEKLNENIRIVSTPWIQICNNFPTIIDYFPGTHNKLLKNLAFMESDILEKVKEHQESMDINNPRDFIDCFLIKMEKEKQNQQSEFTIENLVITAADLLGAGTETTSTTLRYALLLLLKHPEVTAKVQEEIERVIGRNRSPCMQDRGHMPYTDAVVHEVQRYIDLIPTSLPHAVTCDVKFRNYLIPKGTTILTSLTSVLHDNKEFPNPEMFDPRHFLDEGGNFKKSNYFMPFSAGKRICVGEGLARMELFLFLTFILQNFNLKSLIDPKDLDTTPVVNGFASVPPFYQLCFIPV

SMILES	Plasma stability (% remaining at 120 min) (Plasma stability, rat) [%]	IC50 (CYP2C19) [nM]	Rat, % bound (±SD) [1] [%]	IC50 (mP2Y14R [2]) [nM]	t1/2 (h), administration mode [3, 23] [h]	t1/2 (h), administration mode [3, 24] [h]	Microsomal stability (t1/2, min) [4] [min]	IC50 (CYP3A4) [nM]	Simulated intestinal fluid (% remaining at 120 min) [5] [%]	IC50 (CYP2D6) [nM]	Microsomal stability (t1/2, min) [6] [min]	IC50 (hERG) [nM]	IC50 (CYP1A2) [nM]	Mouse, % bound (±SD) [8] [%]	IC50 (hP2Y14R [10]; [25]) [nM]	IC50 (CYP2C9) [nM]	Plasma stability (% remaining at 120 min) (Plasma stability, mouse) [%]	Human, % bound (±SD) [11] [%]	Percent cleavage at 72 h (PLE) [%]	eosinophil counts in the BALF [12]	further results
O=C(O)c1cc(-c2ccc([C@@H]3C[C@@H]4C[C@H]3NC4=O)cc2)c2ccc(-c3ccc(C(F)(F)F)cc3)cc2c1 [Compound 121, 4-(4-((1R,4R,6S)-3-Oxo-2-azabicyclo[2.2.1]heptan-6-yl)phenyl)-7-(4-(trifluoromethyl)phenyl)-2-naphthoic acid]	74.7	> 30000	96.18 ± 0.32	42.9 ± 7	4.59	2.11	89.4	> 30000	100	> 30000	> 1000	> 30000	> 30000	99.74 ± 0.04	37.3 ± 6	> 30000	74.1	98.89 ± 0.50			Simulated gastric fluid (% remaining at 120 min) [7]: 59.3%; half-life ([9]; liver microsomes): 14.2 h
CN(C)C(=O)COC(=O)c1cc(-c2ccc(-c3cc(CO)on3)cc2)c2ccc(-c3ccc(C(F)(F)F)cc3)cc2c1 [Compound 37b, 2-(Dimethylamino)-2-oxoethyl 4-(4-(5-(hydroxymethyl)isoxazol-3-yl)phenyl)-7-(4-(trifluoromethyl)phenyl)-2-naphthoate]																			32.6 ± 0.9	significantly reduced eosinophils to a greater extent than the parent antagonists	
O=C(O)c1cc(-c2ccc([C@H]3C[C@H]4C[C@@H]3CN4)cc2)c2ccc(-c3ccc(C(F)(F)F)cc3)cc2c1 [Compound 114, 4-(4-((1S,4S,5S)-2-Azabicyclo[2.2.1]heptan-5-yl)phenyl)-7-(4-(trifluoromethyl)phenyl)-2-naphthoic acid]	82.8	> 30000	99.79 ± 0.02	33.9 ± 4.6	8.94	7.24	91.0	> 30000	99.1	> 30000	243	> 30000	> 30000	99.76 ± 0.03	3.11 ± 0.62	> 30000	100	87.98 ± 10.29			Simulated gastric fluid (% remaining at 120 min) ([7]; aqueous acid stability determined by NMR): 100^e %; chromatographic logD ([13]; pH 7.4): 1.92 ± 0.09; Microsomal stability (t1/2, min) ([9]; Table 7): 280 (h) min; Solubility (ug/mL) pH 4 [14]: 1.22 ± 0.05 ug/mL; Solubility (ug/mL) pH 7.4 [14]: 0.77 ± 0.21 ug/mL; IC50 (hERG ion channel): > 30000 nM; side effects [15]: No obvious side effects were observed; reversal of mechano-allodynia (figure legend) ([15]; day 7 post-injury): reversed the established mechano-allodynia
CC(=O)N1CCC(c2ccc(-c3cc(C(=O)OCC(=O)N(C)C)cc4cc(-c5ccc(C(F)(F)F)cc5)ccc34)cc2)CC1 [Compound 37c, 2-(Dimethylamino)-2-oxoethyl 4-(4-(1-acetylpiperidin-4-yl)phenyl)-7-(4-(trifluoromethyl)phenyl)-2-naphthoate]																			27.2 ± 0.3	significantly reduced eosinophils to a greater extent than the parent antagonists	
O=C(O)c1cc(-c2ccc(C34CCN(CC3)CC4)cc2)c2ccc(-c3ccc(C(F)(F)F)cc3)cc2c1 [Compound 4]																					aqueous solubility (pH 4.0, μg/mL) ([16]; pH 4.0): 14.3 ± 0.5 μg/mL; aqueous solubility (pH 7.4, μg/mL) ([16]; pH 7.4): 0.44 ± 0.06 μg/mL; IC50 (hP2Y14R [17]): 169 ± 42 nM; Log D7.4 ([13]; calculated from retention factor difference between ligands and 1 (k = 3.41)): 4.18 ± 0.85^f; Solubility (ug/mL) pH 4 [14]: 1.50 ± 0.04 ug/mL; Solubility (ug/mL) pH 7.4 [14]: 0.55 ± 0.02 ug/mL; IC50 (hP2Y14R [10]; Example 5 table, whole cell fluorescent binding assay, read-out: IC50): 20 ± 4.4 nM; IC50 (hP2Y14R [10]; Table 2, whole hP2Y14R-CHO cells, 20 nM fluorescent antagonist 3, mean+SEM, n = 3-6, read-out: IC50): 20 ± 4.4 nM; Microsomal stability (t1/2, min) [18]: 67.2 min; IC50 (mP2Y14R [19]): 384 ± 88 nM; Plasma stability (% remaining at 120 min) [20]: 100%; Microsomal stability (t1/2, min) [21]: 8 >240 (h) min; Plasma stability (% remaining at 120 min) [22]: 100 (m) %
